In patent publication US12390482B2, “Neurolytic agents and methods of using and identifying same” (priority 2021, dated 2025):

Columns and labels:
[1] = system: WT mouse embryonic dorsal root ganglion (DRG) neurons; assay: Axon degeneration in cultured WT DRG neurons; format: cell-based; conditions: for activity as SARM1 activator (tested compounds): axon degeneration and SARM1 activation assays
Method: (§1) DRG neuron culture: Mouse DRG culture was as described previously. Mouse DRGs were dissected at embryonic day 13.5. Approximately 50 ganglia were collected from each embryo and dissociated in 0.05% Trypsin containing 0.02% EDTA (Gibco) at 37° C. for 20 min. The DRG neurons were washed 3 times with DRG culture medium after incubation with Trypsin. Cells were seeded as spot cultures in 96-tissue culture plates (Corning) coated with 0.1 mg/ml poly-D-lysine and 0.1 mg/ml laminin. They were cultured in Neurobasal (Gibco) containing 2% B27 (Invitrogen), 100 ng/ml 2.5S NGF (Harlan Bioproducts), and 1 μM 5-fluoro-2′-deoxyuridine/1 μM uridine. The culture medium was exchanged with fresh DRG culture medium every 2-3 days. Lentiviruses were added 3 days after seeding (DIV3).
[…] After axon transection, bright-field images of distal axons were taken using the Operetta automated imaging system (PerkinElmer). Axon degeneration indexes were calculated from these bright-field images using ImageJ (NIH). The axon degeneration index was calculated as the ratio of fragmented axon areas as previously described. Indexes were calculated as the average of six fields per well.

Sarm1 KO DRG neurons = assay: Axon degeneration and neuronal death in cultured Sarm1 KO DRG neurons; format: cell-based, mouse
Method: as §1
Quantification of axon degeneration: After culture for 7 days, axotomy was performed by cutting DRG axons manually with a razor blade. After axon transection, bright-field images of distal axons were taken using the Operetta automated imaging system (PerkinElmer). Axon degeneration indexes were calculated from these bright-field images using ImageJ (NIH). The axon degeneration index was calculated as the ratio of fragmented axon areas as previously described. Indexes were calculated as the average of six fields per well.

SARM1 = target: T1, SARM1 (Homo sapiens, UniProt Q6SZW1); assay: SARM1 activation assay by PC6 fluorescence; format: biochemical
T1 construct: StrepTag (N); made in house; host or cells: HEK 293T cells stably expressing NRK1
T1 sequence (Q6SZW1 28-724): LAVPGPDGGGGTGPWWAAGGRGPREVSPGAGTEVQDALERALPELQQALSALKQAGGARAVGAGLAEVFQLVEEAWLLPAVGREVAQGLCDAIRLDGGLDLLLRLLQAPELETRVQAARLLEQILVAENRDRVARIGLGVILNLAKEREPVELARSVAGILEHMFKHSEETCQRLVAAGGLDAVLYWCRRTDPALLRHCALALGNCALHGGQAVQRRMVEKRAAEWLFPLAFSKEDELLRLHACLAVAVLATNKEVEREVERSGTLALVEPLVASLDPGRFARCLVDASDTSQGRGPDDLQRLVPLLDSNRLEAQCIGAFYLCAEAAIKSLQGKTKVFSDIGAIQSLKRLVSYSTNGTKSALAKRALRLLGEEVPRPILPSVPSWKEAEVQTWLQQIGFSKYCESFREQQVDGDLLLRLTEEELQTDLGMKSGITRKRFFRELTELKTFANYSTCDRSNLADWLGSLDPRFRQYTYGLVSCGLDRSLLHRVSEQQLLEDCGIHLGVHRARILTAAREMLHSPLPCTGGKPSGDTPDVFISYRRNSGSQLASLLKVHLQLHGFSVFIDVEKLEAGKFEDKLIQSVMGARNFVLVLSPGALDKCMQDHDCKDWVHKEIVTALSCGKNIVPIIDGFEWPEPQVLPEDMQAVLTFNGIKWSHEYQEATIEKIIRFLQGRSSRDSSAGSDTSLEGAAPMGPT
Method: SARM1 protein purification from mammalian cells: A HEK 293T cell line stably expressing NRK1 was used to produce SARM1 protein as previously described. In short, plasmid containing N-terminal StrepTag-SARM1 was transfected into NRK1-HEK 293T cells using X-tremeGENE reagent (Millipore Sigma). After 2 days, the cells were harvested and re-suspended with binding buffer (100 mM Tris-HCL pH 8, 150 mM sodium chloride, 0.01% Tween-20 with EDTA-free protease inhibitors (Pierce)). After sonication, cell debris was removed by centrifugation at 15,000×g for 10 minutes. Soluble lysates were then mixed with StrepTactin Megbeads (Cube Biotech) equilibrated with the same binding buffer. After incubation at 4° C. for 60 minutes, beads were washed with washing buffer (25 mM HEPES, pH 7.5 and 150 mM NaCl with EDTA-free protease inhibitors). […]
SARM1 activation assay by PC6 fluorescence: Modified from previous paper, typically, in a mixture of 50 μl, ˜200 ng of SARM1(on-beads) was mixed with 50 μM PC6, 50 μM NAD^+ and 0 to 100 μM of purified 3APMN. The reaction was carried out in a Bio Tek's Cytation 5 plate reader at 25° C. Fluorescence signal, which corresponds to PAD6 formation, was recorded with 405 nm excitation and 520 nm emission wavelengths every 2 minutes. The production rate of PAD6 was calculated based on the fluorescence changes within the first 30 minutes of reaction.

WT DRG neurons = assay: Metabolite measurement by LC-MS/MS in WT DRG neurons; format: cell-based, mouse; conditions: neurons pre-treated with FK866 prior to 3-AP addition
Method: as §1
Metabolite measurement using LC-MS/MS: Lyophilized samples were reconstituted with 50 μl of 5 mM ammonium formate and centrifuged at 12,000 g for 10 min. Cleared supernatants were transferred to sample vials. Serial dilutions of standards for each metabolite in 5 mM ammonium formate were used for calibration. HPLC-mass spectrometry analysis was performed on an Agilent 1290 Infinity II liquid chromatography system (Agilent Technologies, Santa Clara, CA) with a flexible pump, multisampler, sample cooler and an MCT containing an Atlantis T3 column (2.1×150 mm, 3 μm) and VanGuard guard cartridge (2.1 mm×5 mm, 3 μm) (Waters, Milford, MA), coupled to an Agilent 6470 Triple Quad mass spectrometer (Agilent Technologies, Santa Clara, CA). The mobile phase (0.15 ml/min) was 5 mM ammonium formate in water (A) and 100% methanol (B). The column was equilibrated with 0% B, maintained after injection for 2 min, then a linear gradient to 20% B applied over 4 min. The column was then ramped to 50% B over 2 min, and held at 50% for 2 min, then reverted back to 0% B over the next 5 min and allowed to re-equilibrate at 0% B for 9 min. The total run time was 24 min per sample. […] Raw data were acquired and quantified using MassHunter Workstation software version B.08.00 for 6400 Series Triple Quadrupole (Agilent Technologies, Santa Clara, CA).

sensory neurons = assay: Vacor-induced degeneration of sensory neurons; format: cell-based

CC(=O)c1ccccn1 [2-acetylpyridine]
activity as SARM1 activator (tested compounds) [1]: did not work

Nc1ccccn1 [2-aminopyridine]
axon degeneration (Sarm1 KO DRG neurons): not in Sarm1 KO neurons | axon degeneration ([1]; WT neurons): causes axon degeneration

CC(=O)c1ccc[n+]([C@@H]2O[C@H](COP(=O)([O-])O)[C@@H](O)[C@H]2O)c1 [3-APMN, 3-acetylpyridine mononucleotide]
EC50 (SARM1): ~44 µM

Nc1cccnc1 [3-aminopyridine]
activity as SARM1 activator (tested compounds) [1]: did not work

CC(=O)c1ccncc1 [4-acetylpyridine]
activity as SARM1 activator (tested compounds) [1]: did not work

Nc1ccncc1 [4-aminopyridine]
activity as SARM1 activator (tested compounds) [1]: did not work

O=C(/C=C/c1cccnc1)NCCCCC1CCN(C(=O)c2ccccc2)CC1 [FK866, reference compound]
effect on neurotoxic actions of 3-AP ([1]; FK866 25, 50 or 100 nM overnight, then 3-AP 300 μM): blocks the neurotoxic actions of 3-AP | 3-APMN, 3-APAD and cADPR levels in 3-AP treated neurons (WT DRG neurons): 3-APMN and 3-APAD remain at baseline, and cADPR levels do not increase

NC(=O)c1cccnc1 [Nam, nicotinamide]
effect of pretreatment on 3-AP-induced axon degeneration ([1]; Nam 0, 50, 100 or 200 μM overnight, then 3-AP 500 μM): reduces 3-AP-induced axon degeneration in a dose-dependent manner

O=C(NCc1cccnc1)Nc1ccc([N+](=O)[O-])cc1 [Vacor, N-(4-Nitrophenyl)-N′-[(pyridin-3-yl)methyl]urea]
SARM1 dependence of neuron degeneration (sensory neurons; FIG. 6): SARM1-dependent | effect of local application to neurites (sensory neurons; local application to neurites): causes distal neurite degeneration without harming neuron cell bodies
